One assay concerns KM12 cells. Nature of the assay: Caspase activity assay. Format: cell-based. The conditions noted are these: 72 hours, caspase3 glo / PARP immunoblot. How it is done: KM12 cells were maintained in DMEM medium supplemented with 10% fetal bovine serum and antibiotics. 500,000 cells were seeded in 12-well plate and various concentration of compounds were introduced for 72 hours For staurosporine treatment, 500 nM of STS were added at time of 60 hours and incubation of 12 hours as a positive control. All the cells were collected and washed with 1×PBS twice and then lysed in a lysis buffer (20 mM HEPES, 150 mM NaCl, 10 mM KCl, 5 mM EDTA, 1% NP40) supplemented with Halt protease and phosphatase inhibitors (Thermo Scientific). For caspase assays, around 20 μL (20 μg) of cell lysate were incubated with 20 μL, of caspase3 glo reagent (Promega), measuring enzyme activity by the release of luminescence after 20 min incubation at 37° C. For western blotting, cell lysates were boiled and analyzed by SDS-PAGE/immunoblotting using PARP, or actin antibodies.
In general terms: In western blotting, separated proteins are transferred to a membrane and probed.

Assay [1] deals with Ba/F3-EML4-ALK wild type cell line. Kind of assay: EML4-ALK Ba/F3 cell proliferation assay. It counts as cell-based. The settings on record: 48 hours incubation, read-out: EML4-ALK Ba/F3 cell proli. IC50. Here is the method:
The EML4-ALK wild-type gene (variant 1) was synthesized at GenScript and cloned into pCDH-CMV-MCS-EF1-Puro plasmid (System Biosciences, Inc). Ba/F3-EML4-ALK wild type cell line was generated by infecting Ba/F3 cells with lentivirus containing EML4-ALK wide-type. Stable cell lines were selected by puromycin treatment, followed by IL-3 withdrawal. 5000 cells were seeded in 384 well white plate overnight before compound treatment. Cell proliferation was measured using CellTiter-Glo luciferase-based ATP detection assay (Promega) following the manufactures's protocol after 48 hours of various concentration of compound incubation. IC50 determinations were performed using GraphPad Prism software (GraphPad, Inc., San Diego, Calif.).

SMILES strings stand for the structures.

Regarding `CN1Cc2cc(F)ccc2OCCNC(=O)c2cnn3ccc1nc23` [Example 20, 11-fluoro-14-methyl-6,7,13,14-tetrahydro-1,15-ethenopyrazolo[4,3-f][1,4,8,10]benzoxatriazacyclo-tridecin-4(5H)-one], the “apoptosis of KM 12 cells” value in the assay on KM12 cells was “induced apoptosis”. Regarding `C[C@H]1Nc2ccn3ncc(c3n2)C(=O)NCCOc2ccc(F)cc21` [Example 51-1, (13R)-11-fluoro-13-methyl-6,7,13,14-tetrahydro-1,15-ethenopyrazolo[4,3-f][1,4,8,10]benzoxatriazacyclotridecin-4(5H)-one], the IC50 in assay [1] amounted to 0.248 µM. The same measure, in the same setting: the result for `C[C@@H]1CNC(=O)c2cnn3ccc(nc23)N[C@H](C)c2cc(F)ccc2O1` [Example 92, (7R,13R)-11-fluoro-7,13-dimethyl-6,7,13,14-tetrahydro-1,15-ethenopyrazolo[4,3-f][1,4,8,10]benzoxatriazacyclotridecin-4(5H)-one] reads 0.0786 µM.

For the molecule `C[C@H]1CNC(=O)c2cnn3ccc(nc23)N[C@H](C)c2cc(F)ccc2O1` [Example 93, (7S,13R)-11-fluoro-7,13-dimethyl-6,7,13,14-tetrahydro-1,15-ethenopyrazolo[4,3-f][1,4,8,10]benzoxatriazacyclotridecin-4(5H)-one], the IC50 in assay [1] came to 0.0211 µM.

These data come from patent publication US10618912B2, “Diaryl macrocycles as modulators of protein kinases” (Turning Point Therapeutics, Inc., priority 2014, dated 2020).
